In patent publication US20190055267A1, “ORGANOTRIFLUOROBORATE MIMICS OF AMINO ACIDS AND USES THEREOF” (The United States of America, as represented by the …, priority 2015, published 2019):
Where two headings read alike, the source gives them in different places.

Key:
[1] = COOH group of the corresponding amino acid; cited from earlier work
[2] = Solvolysis of the BF3 moiety in phosphate buffer; assay type: physicochemical; details: for t1/2/min: half-life in phosphate buffer at pH 7.4; for pKB-F: pK of the first fluorine of the BF3− moiety; for k (solv)/min^−1: rate of solvolysis, phosphate buffer pH 7.4
Excerpt: See also, Liu et al., Chem. Eur. J., 2015, 21:3924-8, incorporated herein by reference in its entirety.

U87MG cells = test: In vitro competitive inhibition of boramino acid uptake by natural amino acids and transporter inhibitors; parameters: inhibition: dose or concentration left out as unconfirmed; details: for inhibition / inhibition at 25000 µM: Homo sapiens, U-87 MG, 1 h; for inhibition: read-out: inhibition of uptake of 18F-Leu-BF3
Procedure: The U87MG cells were in Dulbecco modified Eagle medium and Minimum Essential Medium under a humidified atmosphere with 5% CO2 at 37° C. The culture media was supplemented with 10% fetal bovine serum, 100 U/mL penicillin, and 100 μg/mL streptomycin. […] Prior to incubation, the cells were washed with phosphate-buffered saline (PBS). […] The cells were then washed 3 times with ice-cold PBS, quenched with 0.1 M of NaOH and the cell-bound radioactivity was counted using a gamma counter. Uptake is defined as percentage of added radioactive dose (% AD).
The control is incubation with BAA only without competitor.

UM22B cells = test: Competitive inhibition assay of 18F-Leu-BF3 uptake; assay type: cell-based; details: 60 min incubation
Procedure: To study the specificity of BAA transportation, a competitive inhibition assay was performed using UM22B cells in the presence of natural amino acid and transporter inhibitor.

amino acid transporters = details: natural amino acid, comparison value; read-out: KM/μM, AA; cited from earlier work
[3] = read-out: inhibition of uptake of 18F-Phe-BF3
[4] = read-out: inhibition of uptake of 18F-Ala-BF3
[5] = read-out: inhibition of uptake of 18F-Pro-BF3
[6] = U87MG cells, competitor at 25 mM, 60 min incubation

Row | SMILES | pka of corres. COOH [1] | t1/2/min [2] [h] | pKB-F [2] | k (solv)/min^−1 [2] [min⁻¹] | inhibition (U87MG cells) [%] | inhibition at 25000 µM (U87MG cells; [3]) [%] | inhibition at 25000 µM (U87MG cells; [4]) [%] | other results
1 | C[C@H]([NH3+])[B-](F)(F)F [Ala-BF3] | 2.35 | 56.42 | 3.6895 | 0.0002044 | – | – | – | –
2 | NC1(C(=O)O)CC2CCC1C2 (stereo not drawn) [BCH, 2-amino-2-norbornanecarboxylic acid] | – | – | – | – | 77.4 | 72.1 | – | inhibition of uptake of 18F-Leu-BF3 (U87MG cells; U87MG cells, BCH with sodium-free medium, 60 min incubation): 83.0%; inhibition of cell uptake of 18F-Leu-BF3 (UM22B cells): 83.0%
3 | C[C@H](N)C(=O)O [L-Alanine] | – | – | – | – | 38.9 | 60.3 | ~90 | Km (amino acid transporters): 370 µM
4 | N=C(N)NCCC[C@H](N)C(=O)O [L-Arginine] | – | – | – | – | 23 | 42.6 | 58.2 | inhibition at 25000 µM (U87MG cells; [5]): 15.6%
5 | N[C@@H](CCC(=O)O)C(=O)O [L-Glutamate] | – | – | – | – | – | – | – | inhibition of uptake of 18F-Ala-BF3 (U87MG cells; [6]): 50.3%; inhibition of uptake of 18F-Phe-BF3 (U87MG cells; [6]): 13.0%; inhibition of uptake of 18F-Pro-BF3 (U87MG cells; [6]): 0.2%
6 | CC(C)C[C@H](N)C(=O)O [L-leucine] | – | – | – | – | ~98 | – | – | Km (amino acid transporters): 19.7 ± 2.4 µM; inhibition of cell uptake of 18F-Leu-BF3 (UM22B cells): 94.7%
7 | N[C@@H](Cc1ccccc1)C(=O)O [L-phenylalanine] | – | – | – | – | – | ~80 | 71 | inhibition at 25000 µM (U87MG cells; [5]): 0.1%; Km (amino acid transporters): 18.7 ± 4.1 µM
8 | CC(C)C[C@H]([NH3+])[B-](F)(F)F [Leu-BF3] | 2.33 | 60.25 | 3.7181 | 0.0001914 | – | – | – | –
9 | CNC(C)(C)C(=O)O [MeAIB, 2-methylaminoisobutyric acid] | – | – | – | – | 24.5 | 17.6 | 39.3 | inhibition at 25000 µM (U87MG cells; [5]): 39.3%
10 | CSCC[C@H]([NH3+])[B-](F)(F)F [Met-BF3] | 2.13 | 116.4 | 4.0041 | 9.906e-05 | – | – | – | –
11 | [NH3+]C(Cc1ccccc1)[B-](F)(F)F (stereo not drawn) [Phe-BF3] | 2.2 | 92.45 | 3.904 | 0.0001247 | – | – | – | –
